Consider 19 compounds from patent US7605272B2, “IGF-1R inhibitor” (Kyowa Hakko Kirin Co., Ltd., priority 2005, dated 2009).

Where a name gives a salt, the structure may show the parent alone. Read-outs that look alike come from different tables or passages of the source.

One experiment deals with NCI-H929. Briefly: Cytostatic activity on human multiple myeloma cell line NCI-H929 (WST-1). It counts as cell-based. The conditions noted are these: for inhibition at 1 µM / inhibition at 10 µM: Homo sapiens, NCI-H929, 72 h; for inhibition at 1 µM: read-out: cytostatic rate (%) H929 (1 μmol/L); for inhibition at 10 µM: 10 μmol/L, read-out: cytostatic rate (%) H929 (10 μmol/L). On the procedure:
(§1) The cytostatic rates of a test compound on human multiple myeloma cell lines NCI-H929 and KMS-11, were determined in the following manner.
(§2) For culturing NCI-H929, Roswell Park Memorial Institute's Medium (RPMI) 1640 (Gibco, Catalog No. 11875-093) containing 15% fetal bovine serum (Gibco, Catalog No. 10099-141), 1 mmol/L sodium pyruvate (Gibco, Catalog No. 11360-070), 10 mmol/L HEPES (Gibco, Catalog No. 15630-80), 4.5 g/L glucose (Sigma, Catalog No. G8769), 0.05 mmol/L 2-mercaptethanol (Nacalai Tesque, Catalog No. 21418-42) and penicillin/streptomycin (1:1) (Gibco, Catalog No. 15140-122) was used. For culturing KMS-11 cell, RPMI 1640 medium containing 10% fetal bovine serum and penicillin/streptomycin (1:1) was used. Each 80 μL of the NCI-H929 cell having a concentration of 1×10^5 cells/mL (or the KMS-11 cell having a concentration of 7.5×10^4 cells/mL) was inoculated to wells of a TC MICROWELL 96U plate (Nalge Nunc International, Catalog No. 163320) and was cultured in a 5% carbon dioxide gas incubator at 37° C. for 24 hours. Each 20 μL of a solution of the test compound in dimethyl sulfoxide (DMSO) which was prepared to make the final concentration to 1 μmol/L or 10 μmol/L, was added to each well. Each 20 μL of DMSO was added to the control well and the blank well to a final concentration of 0.1%. After adding the test compound, the cells were incubated in a 5% carbon dioxide gas incubator at 37° C. for 72 hours except for the blank well. After adding 20 μL of WST-1 reagent {4-[3-(4-iodophenyl)-2-(4-nitrophenyl)-2H-5-tetrazolio]-1,3-benzene disulfonate sodium salt} (Roche Diagnostics K.K., Catalog No. 1644807), which was diluted to 50% by RPMI medium to each well, the cells were further incubated at 37° C. for 2 hours. Then, the absorbances at 450 nm (reference wavelength: 690 nm) were measured with a microplate spectrophotometer SPECTRA max 340PC (Molecular Devices Corporation). The relative growth (%) of a well to which the test compound had been added and cultured for 72 hours was determined while setting the absorbance of a well to which not the test compound but DMSO alone had been added and cultured for 72 hours (control) as 100% and that of a well where the drugs are added (blank) as 0%. The cytostatic rate (%) of the test compound was determined by subtracting the calculated relative growth from 100.
On the technique in general: Tetrazolium dyes change colour on reduction, which living cells bring about.

In another experiment the test system is KMS-11. Briefly: Cytostatic activity on human multiple myeloma cell line KMS-11 (WST-1). The class given is cell-based. Conditions: for inhibition at 1 µM / inhibition at 10 µM: Homo sapiens; for inhibition at 1 µM: read-out: cytostatic rate (%) KMS-11 (1 μmol/L); for inhibition at 10 µM: 10 μmol/L, read-out: cytostatic rate (%) KMS-11 (10 μmol/L). On the procedure:
as §1, §2

For another experiment, the target named is T1, IGF-1R (Homo sapiens, UniProt P08069).
T1 construct: purchased Upstate Co. 14-465
Briefly: IGF-1R inhibitory activity (kinase reaction, time-resolved fluoroimmunoassay). The class given is biochemical. Conditions: test compound 10 μmol/L. The method in brief:
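Compounds were tested at a single 10 μmol/L concentration. Each was incubated with recombinant IGF-1R (200 μg/L), 10 mmol/L ATP, MgCl2/MnCl2 and Na3VO4 (pH 7.5) on immobilized poly(Glu-Tyr) peptide for 30 min at 24° C. Eu-anti-phosphotyrosine time-resolved fluorescence (340/615 nm) gave relative activity against no-compound and no-enzyme wells, reported as % inhibition.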

Where [1] appears, read: NCI-H929 cells, test compound 1 μmol/L, WST-1.
Setting [2] is: KMS-11 cells, test compound 1 μmol/L, WST-1.
The mark [3] stands for this setting: IGF-1R active recombinant enzyme.
The mark [4] stands for this setting: KMS-11, 72 h, 1 μmol/L, 72 hours.

T1 sequence (P08069 959-1367 limits assumed): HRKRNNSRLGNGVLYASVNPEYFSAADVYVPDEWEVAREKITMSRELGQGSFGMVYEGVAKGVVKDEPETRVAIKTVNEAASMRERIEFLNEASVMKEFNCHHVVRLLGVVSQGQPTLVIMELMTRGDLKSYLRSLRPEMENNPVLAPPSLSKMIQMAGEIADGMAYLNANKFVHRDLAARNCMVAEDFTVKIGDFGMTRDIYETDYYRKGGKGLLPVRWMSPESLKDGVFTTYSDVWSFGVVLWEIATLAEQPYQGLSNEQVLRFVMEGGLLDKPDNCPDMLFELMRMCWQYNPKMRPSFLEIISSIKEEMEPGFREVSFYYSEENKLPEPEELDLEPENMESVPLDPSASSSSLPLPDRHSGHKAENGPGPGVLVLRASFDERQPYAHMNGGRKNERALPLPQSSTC

On to `CC(=O)CCN1CCN(Cc2ccc(/C=C/c3n[nH]c4ccccc34)c(NC(=O)c3sccc3C)c2)CC1` [Compound 313, (E)-{2-[2-(1H-indazol-3-yl)vinyl]-5-[4-(3-oxobutyl)piperazin-1-ylmethyl]phenyl}-3-methylthiophene-2-carboxamide], for which the “cytostatic rate (%) H929 (1 μmol/L)” value in the experiment with NCI-H929 (setting [1]) was found to be 115.2%. For the same compound, the “cytostatic rate (%) KMS-11 (1 μmol/L)” value in the experiment on KMS-11 (setting [2]) was determined as 107.9%. In addition, the “inhibitory activity (%) at 10 μmol/L” value on IGF-1R (setting [3]) is 100.7%.
For the compound `Cc1ccsc1C(=O)Nc1cc(CNC2CCNCC2)ccc1/C=C/c1n[nH]c2ccccc12` [Compound 264, (E)-N-{2-[2-(1H-indazol-3-yl)vinyl]-5-(piperidin-4-ylaminomethyl)phenyl}-3-methylthiophene-2-carboxamide], the inhibition at 1 µM with NCI-H929 (1 μmol/L, 72 hours) was 111%; in the experiment with KMS-11 (setting [4]), 58.5%. Further, the inhibition at 10 µM at IGF-1R (setting [3]) is 102%.
For `COCCCN1CCN(Cc2ccc(/C=C/c3n[nH]c4ccccc34)c(N3Cc4c(N)cccc4C3=O)c2)CC1` [Compound 323, (E)-4-amino-2-{2-[2-(1H-indazol-3-yl)vinyl]-5-[4-(3-methoxypropyl)piperazin-1-ylmethyl]phenyl}-2,3-dihydroisoindol-1-one], the “cytostatic rate (%) H929 (1 μmol/L)” value with NCI-H929 (setting [1]) is on record as 107.6%. Also, the “cytostatic rate (%) KMS-11 (1 μmol/L)” value with KMS-11 (setting [2]) worked out at 73.8%. The “inhibitory activity (%) at 10 μmol/L” value on IGF-1R (setting [3]) was 105.8%.
For `COc1c(OCCCN2CCOCC2)ccc(/C=C/c2n[nH]c3ccccc23)c1NC(=O)c1sccc1C` [Compound 342, (E)-N-{6-[2-(1H-indazol-3-yl)vinyl]-2-methoxy-3-(3-morpholin-4-yl)propoxyphenyl}-3-methylthiophene-2-carboxamide], in that order: 118.7%, 122.6% and 101.6%.
Consider `CC(=O)c1ccc(C(=O)Nc2ccccc2/C=C/c2n[nH]c3ccccc23)s1` [Compound 43, (E)-5-acetyl-N-{2-[2-(1H-indazol-3-yl)vinyl]phenyl}thiophene-2-carboxamide], for which the inhibition at 10 µM in the experiment with NCI-H929 (72 hours) was found to be 113%; in the experiment with KMS-11 (KMS-11, 72 h, 72 hours) it was 112%; on IGF-1R (setting [3]) it was 96.3%.
For `O=C(Nc1ccccc1/C=C/c1n[nH]c2ccccc12)c1ccc(F)cc1` [Compound 3, (E)-4-fluoro-N-{2-[2-(1H-indazol-3-yl)vinyl]phenyl}benzamide], in that order: 115%, 118% and 99.1%.
Regarding `Cc1ccsc1C(=O)Nc1cc(C(=O)N2CCC(N(C)C)C2)ccc1/C=C/c1n[nH]c2ccccc12` (stereo not drawn) [Compound 295, (E)-N-{5-[3-(dimethylamino)pyrrolidin-1-ylcarbonyl]-2-[2-(1H-indazol-3-yl)vinyl]phenyl}-3-methylthiophene-2-carboxamide], the inhibition at 1 µM came to 118% in the experiment on NCI-H929 (1 μmol/L, 72 hours) and 118% in the experiment on KMS-11 (setting [4]). The inhibition at 10 µM on IGF-1R (setting [3]) was determined as 97.2%.
Regarding `CC(=O)N1CCN(C(=O)c2ccc(/C=C/c3n[nH]c4ccccc34)c(NC(=O)Cc3cccs3)c2)CC1` [Compound 89, (E)-N-{5-(4-acetylpiperazin-1-ylcarbonyl)-2-[2-(1H-indazol-3-yl)vinyl]phenyl}-2-(thiophen-2-yl)acetamide], the inhibition at 10 µM with NCI-H929 (72 hours) came to 114%; with KMS-11 (KMS-11, 72 h, 72 hours), 138%; on IGF-1R, 98.4%.
For the compound `CC(=O)Nc1ccccc1/C=C/c1n[nH]c2ccccc12` [Compound 9, (E)-N-{2-[2-(1H-indazol-3-yl)vinyl]phenyl}acetamide], the inhibition at 10 µM with NCI-H929 (72 hours) was determined as 59%; in the experiment with KMS-11 (KMS-11, 72 h, 72 hours), 99.8%; on IGF-1R (setting [3]), 74.3%.
Take `CC(=O)N1CCN(C(=O)c2ccc(/C=C/c3n[nH]c4ccccc34)c(NC(=O)c3cccn3C)c2)CC1` [Compound 91, (E)-N-{5-(4-acetylpiperazin-1-ylcarbonyl)-2-[2-(1H-indazol-3-yl)vinyl]phenyl}-1-methyl-1H-pyrrole-2-carboxamide]: the inhibition at 10 µM turned out to be 115% with NCI-H929 (72 hours); 144% in the experiment on KMS-11 (KMS-11, 72 h, 72 hours); 98.7% against IGF-1R.
For the compound `Cc1ccsc1C(=O)Nc1cc(C(=O)N2CCN(C=O)CC2)ccc1/C=C/c1n[nH]c2ccccc12` [Compound 218, (E)-N-{2-[2-(1H-indazol-3-yl)vinyl]-5-(4-formylpiperazin-1-ylcarbonyl)phenyl}-3-methylthiophene-2-carboxamide hydrochloride], the inhibition at 1 µM in the experiment with NCI-H929 (1 μmol/L, 72 hours) is 112%; in the experiment on KMS-11 (setting [4]), 106%. For the same compound, the inhibition at 10 µM at IGF-1R (setting [3]) was 98.6%.
For `O=C1c2ccccc2C(=O)N1c1ccccc1/C=C/c1n[nH]c2ccccc12` [Compound 159, (E)-2-{2-[2-(1H-indazol-3-yl)vinyl]phenyl}isoindole-1,3-dione], the inhibition at 10 µM in the experiment on NCI-H929 (72 hours) came to 104%; with KMS-11 (KMS-11, 72 h, 72 hours), 75.5%; at IGF-1R (setting [3]) it was 99.9%.
Turning to `COc1c(OCCCN2CCNC(=O)C2)ccc(/C=C/c2n[nH]c3ccccc23)c1NC(=O)c1sccc1C` [Compound 341, (E)-N-{6-[2-(1H-indazol-3-yl)vinyl]-2-methoxy-3-[3-(3-oxopiperazin-1-yl)propoxy]phenyl}-3-methylthiophene-2-carboxamide], the inhibition at 1 µM in the experiment with NCI-H929 (setting [1]) stood at 120%; in the experiment on KMS-11 (KMS-11, 72 h, KMS-11 cells, test compound 1 μmol/L, WST-1), 124%. Besides, the inhibition at 10 µM at IGF-1R (setting [3]) was determined as 105%.
On to `Nc1cccc2c1CN(c1ccccc1/C=C/c1n[nH]c3ccccc13)C2=O` [Compound 216, (E)-4-amino-2-{2-[2-(1H-indazol-3-yl)vinyl]phenyl}-2,3-dihydroisoindole-1-one], for which the inhibition at 10 µM with NCI-H929 (72 hours) worked out at 109%; in the experiment with KMS-11 (KMS-11, 72 h, 72 hours), 90.9%; on IGF-1R (setting [3]), 96.5%.
For `NC(=S)Nc1ccccc1/C=C/c1n[nH]c2ccccc12` [Compound 161, (E)-N-{2-[2-(1H-indazol-3-yl)vinyl]phenyl}thiourea], in that order: 113%, 92.8% and 95.9%.
`Cc1ccsc1C(=O)Nc1cc(C(=O)NCCN2CCOCC2)ccc1/C=C/c1n[nH]c2ccccc12` [Compound 282, (E)-N-(2-[2-(1H-indazol-3-yl)vinyl]-5-{N-[2-(morpholin-4-yl)ethyl]carbamoyl}phenyl)-3-methylthiophene-2-carboxamide]: the inhibition at 1 µM with NCI-H929 (1 μmol/L, 72 hours) was found to be 130%; in the experiment on KMS-11 (setting [4]), 123%. For the same compound, the inhibition at 10 µM at IGF-1R (setting [3]) worked out at 99.2%.
For `Nc1ccc(C(=O)Nc2ccc(OCCN3CCOCC3)cc2/C=C/c2n[nH]c3ccccc23)s1` [Compound 106, (E)-5-amino-N-{2-[2-(1H-indazol-3-yl)vinyl]-4-(2-morpholinoethoxy)phenyl}thiophene-2-carboxamide], the inhibition at 10 µM with NCI-H929 (72 hours) was 112%; in the experiment with KMS-11 (KMS-11, 72 h, 72 hours) it was 115%.
Take `CCN(CC)C(=O)c1ccc(/C=C/c2n[nH]c3ccccc23)c(NC(=O)c2sccc2C)c1` [Compound 101, (E)-N-{5-(N,N-diethylcarbamoyl)-2-[2-(1H-indazol-3-yl)vinyl]phenyl}-3-methylthiophene-2-carboxamide]: the inhibition at 10 µM in the experiment on KMS-11 (KMS-11, 72 hours) was found to be 117%; against IGF-1R, 100%.
On to `CCN(C)C(=O)c1ccc(/C=C/c2n[nH]c3ccccc23)c(NC(=O)c2sccc2C)c1` [Compound 113, (E)-N-{5-(N-ethyl-N-methylcarbamoyl)-2-[2-(1H-indazol-3-yl)vinyl]phenyl}-3-methylthiophene-2-carboxamide], for which the inhibition at 10 µM with KMS-11 (KMS-11, 72 h, 72 hours) was found to be 121%; at IGF-1R, 98.6%.
